Assay results: patent publication US8507411B2, “Neoglycorandomization and digitoxin analogs” (priority 2004, dated 2013)
pIC50: −log10 of the molar value. Read-outs that look alike come from different tables or passages of the source.

Columns and labels:
NmuMG = assay: cells; format: cell-based, mouse
Procedure, shortened: (§1)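 RPMI 1640 + 10% FBS (NmuMG: DMEM + 10% FBS + insulin); 10–15k cells/well, 1 h attach; 5-pt 2-fold dose series, 72 h; PBS wash, calcein AM 30 min 37 °C; ex485/em535; 4-PL fit, n ≥ 6.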

MCF7 = assay: High-throughput calcein AM cytotoxicity assay, MCF7; format: cell-based, human; conditions: MCF7 cells; read-out: IC50, MCF7
From the text: (§2) Standard errors are depicted with error bars.

Du145 = assay: High-throughput calcein AM cytotoxicity assay, Du145; format: cell-based, human; conditions: Du145 cells; read-out: IC50, Du145
From the text: as §2

[1] = test system: nine human cancer cell lines and a mouse mammary normal epithelial control line; assay: High-throughput calcein AM cytotoxicity assay, whole cell line panel; conditions: for cytotoxicity (in words): cell line panel, 72 h, calcein AM
From the text: In the assay, live cells were distinguished by the presence of a ubiquitous intracellular enzymatic activity which converts the non-fluorescent cell-permeable molecule calcein AM to the intensely fluorescent molecule calcein, which is retained within live cells. The IC50 value for each library member represents at least six replicates of dose-response experiments conducted over five concentrations using two-fold dilutions. […] Standard errors are depicted with error bars. Numerical values and corresponding error values can be found in Table 4. Du145: […]; MCF7: human breast carcinoma; HCT-116: human colon carcinoma, Hep3B: human liver carcinoma; SF-268: human CNS glioblastoma; SK-OV-3: human ovary adenocarcinoma; NCI-H460: human lung carcinoma; A549: human lung adenocarcinoma; NCI/ADR-RES: human breast carcinoma; NmuMG: mouse mammary normal epithelial.
Cell Culture: All cell lines except NmuMG were maintained in RPMI 1640 medium from InVitrogen (Cat No. 11875-085) supplemented with 10% w/v fetal bovine serum (FBS) from ICN (Cat No. 2916154) and penicillin-streptomycin (PS) (100 U/mL and 100 μg/mL) from InVitrogen (Cat No. 15140-122). NmuMG cells were maintained in DMEM medium from InVitrogen (Cat No. 11965-084) supplemented with 10% w/v fetal bovine serum (FBS) from ICN (Cat No. 2916154), 10 μg/ml insulin (InVitrogen Cat No 12585-014), and penicillin-streptomycin (PS) (100 U/mL and 100 μg/mL) from InVitrogen (Cat No. 15140-122). Cells were harvested by trypsinization using 0.25% w/v trypsin and 0.1% w/v EDTA from InVitrogen (Cat No. 15-050-057) and then counted in a hemocytometer in duplicate with better than 10% agreement in field counts. Cells were plated at a cell density of 10,000-15,000 cells/well of each Corning Costar 96-well black tissue culture treated microtiter plate (Fisher Cat No. 07-200-627). Cells were grown for 1 h at 37° C., with 5% CO2 in a humidified incubator to allow cell attachment to occur before compound addition.
Library Member Handling and Preparation for Cytotoxicity Assays: Library members were stored at −20° C. under dessicating conditions before the assay. Library member stocks (100×) were prepared in Corning Costar polypropylene 96-well V-bottom polypropylene microtiter plates (Fisher Cat No. 07-200-695). Five serial 1:2 dilutions were made with anhydrous DMSO at 100× the final concentration used in the assay.
Library Member Addition: The library member-containing plates were diluted 1:10 with complete cell culture media. The 10× stocks (10 μL) were added to the attached cells using a Biomek FX liquid handler (Beckman-Coulter). Library member stocks (10 μL) were added to 90 μL of cells in each plate to insure full mixing of stocks with culture media using a Beckman FX liquid handler with 96-well head.
Determination of Cytotoxicity: Cells were incubated with the library members for 72 h before fluorescence reading. Test plates were removed from the incubator and washed 1× in sterile PBS to remove serum containing calcium esterases. Calcein AM reagent (30 μL, […]) was added and the cells were incubated for 30 min at 37° C. Plates were read for emission using a fluorescein filter (excitation 485 nm, emission 535 nm).
IC50 Calculation: For each library member, at least six dose response experiments were conducted. […] To calculate IC50, percent inhibitions were plotted as a function of log [concentration] and then fit to a four-parameter logistic model that allowed for a variable Hill slope using XLfit 4.1.
Cytotoxicity Assays. All cell lines except NmuMG were maintained in RPMI 1640 medium supplemented with 10% w/v fetal bovine serum (FBS) and penicillin-streptomycin (PS) (100 U/mL and 100 μg/mL).

A549 = assay: High-throughput calcein AM cytotoxicity assay, A549; format: cell-based, human; conditions: A549 cells; read-out: IC50, A549
From the text: as §2

HCT-116 = assay: High-throughput calcein AM cytotoxicity assay, HCT-116; format: cell-based, human; conditions: HCT-116 cells; read-out: IC50, HCT-116
From the text: as §2

NCI/ADR-RES = assay: cells; format: cell-based, human
Procedure, shortened: as §1

SK-OV-3 = assay: cells; format: cell-based, human
Procedure, shortened: as §1

SF-268 = assay: cells; format: cell-based, human
Procedure, shortened: as §1

NCI-H460 = assay: High-throughput calcein AM cytotoxicity assay, NCI-H460; format: cell-based, human; conditions: NCI-H460 cells; read-out: IC50, NCI-H460
From the text: as §2

Hep3B = assay: High-throughput calcein AM cytotoxicity assay, Hep3B; format: cell-based, human; conditions: Hep 3B cells; read-out: IC50, Hep 3B
From the text: as §2

[2] = read-out: IC50, NCI/ADR-RES; NCI/ADR-RES cells
[3] = read-out: IC50, SK-OV-3; SK-OV-3 cells
[4] = read-out: IC50, SF-268; SF-268 cells
[5] = NmuMG mouse mammary normal epithelial control line; read-out: IC50, NmuMG
[6] = NCI/ADR-RES cells; read-out: IC50, NCI/ADR-RES
[7] = SK-OV-3 cells; read-out: IC50, SK-OV-3
[8] = SF-268 cells; read-out: IC50, SF-268

Compound | pIC50 (NmuMG; read-out: IC50, NmuMG; NmuMG mouse mammary normal epithelial control line) | pIC50 (MCF7) | pIC50 (Du145) | pIC50 ([1]; Homo sapiens) | pIC50 (A549) | pIC50 (HCT-116) | pIC50 (NCI/ADR-RES; [2]) | pIC50 (SK-OV-3; [3]) | pIC50 (SF-268; [4]) | pIC50 (NCI-H460) | pIC50 (NmuMG; [5]) | cytotoxicity (in words) [1] | pIC50 (NCI/ADR-RES; [6]) | pIC50 (SK-OV-3; [7]) | pIC50 (SF-268; [8]) | pIC50 (Hep3B) | pIC50 ([1]; all cell lines) | pIC50 (NmuMG; Mus musculus, read-out: IC50, NmuMG) | pIC50 ([1]; Homo sapiens, read-out: average IC50)
CONC1CC[C@]2(C)C3CC[C@]4(C)[C@@H](C5=CC(=O)OC5)CC[C@]4(O)C3CC[C@@H]2C1 (stereo partly drawn) [3α, S—C(3) aglycon] | < 4.60 | 4.89 | 5.54 | < 4.60 | 5.08 | 5.05 | 5.29 | 5.52 | 5.46 | 5.62 |  |  |  |  |  |  |  |  | 
CON([C@H]1CC[C@@]2(C)[C@H](CC[C@@H]3[C@@H]2CC[C@]2(C)[C@@H](C4=CC(=O)OC4)CC[C@]32O)C1)[C@H]1OC[C@H](O)[C@H](O)[C@H]1O [32β, L-arabinoside] |  | 5.66 | 5.96 |  | 5.77 | 6.52 |  |  |  | 6.14 | 6.40 | relatively inactive | 6.19 | 5.52 | 6.00 | 5.92 |  |  | 
CON(C1CCC2(C)C(CCC3C2CCC2(C)C(C4=CC(=O)OC4)CCC32O)C1)C1OC(COC2OC(CO)C(O)C(O)C2O)C(O)C(O)C1O (stereo not drawn) [35β, melibioside] |  | < 4.60 | 4.57 |  | < 4.60 | < 4.60 |  |  |  | 4.54 | < 4.60 |  | 4.80 | 4.82 | < 4.60 | 4.59 | < 4.60 |  | 
6-deoxy-6-azido-D-mannoside [41β] |  | 5.48 | 5.70 |  | 5.77 | 5.22 |  |  |  | 5.57 | < 4.60 | not active | 6.08 | 5.68 | 5.60 | 5.74 |  |  | 
CON([C@H]1CC[C@@]2(C)[C@H](CC[C@@H]3[C@@H]2CC[C@]2(C)[C@@H](C4=CC(=O)OC4)CC[C@]32O)C1)[C@@H]1O[C@H](CO)[C@@H](O)[C@H](O)[C@H]1O [4β, D-glucoside] |  | 5.00 | 5.09 |  | 5.54 | 5.42 |  |  |  | 5.46 | 5.51 | relatively inactive | 5.72 | 5.22 | 5.35 | 5.62 |  |  | 
CONC1CC[C@]2(C)C3CC[C@]4(C)[C@@H](C5=CC(=O)OC5)CC[C@]4(O)C3CC[C@@H]2C1 (stereo partly drawn) [3β, R—C(3)aglycon] |  | 5.74 | 5.89 |  | 5.92 | 5.92 | 6.15 | 6.05 | 6.00 | 6.15 |  |  |  |  |  | 5.85 |  | < 4.60 | ~5.96
